Assay results from PubChem BioAssay AID2060510 (Molecular Pharmacology Branch, DTP, NCI, 2025).
Values joined by “and” are separate entries in the source; they are usually repeats but may differ in a detail not shown here. Equal entries are not always repeated.

Tested on: 439559-082-T-J2-PDC spheroids viability
Test: Anticancer human tumor 439559-082-T-J2-PDC patient-derived colon adenocarcinoma cell line growth inhibition [GQUAD]
Conditions: for viability, T/C: stronger effect = lower value
From the text: DNA G-quadruplex Stabilizer Agents in Combinations in Complex Spheroids
A high-throughput screen of multi-cell type tumor spheroids was designed to identify active combinations of DNA G-quadruplex stabilizer agents and targeted small molecules. Complex spheroids include a stromal component modeled by human endothelial cells (HUVEC) and fibroblasts modeled by human mesenchymal stem cells (MSCs). The concentration ranges selected for each drug and investigational agent were based upon clinically achievable concentrations if the clinical Cmax of the agent was known.
Compounds. The drugs and investigational agents: pidnarulex (CX-5461; NSC782164), APTO-253 (NSC789042), BRACO-19 (NSC847499), peposertib (NSC802822), ceralasertib (NSC780249), elimusertib (NSC800525), camonsertib (NSC841442), AZD-1390 (NSC803789), olaparib (NSC753686), talazoparib (NSC767125), ART-558 (NSC835418), sotorasib (NSC818433), MRTX-1133 (NSC836407), SN-38 (NSC673596), topotecan (NSC609699), etoposide (NSC141540), doxorubicin (NSC123127), gemcitabine (NSC613327), 5-fluorouracil (NSC19893), paclitaxel (NSC125973), vemurafenib (NSC761431), panobinostat (NSC761190), R-306465 (JNJ-16241199; NSC773264), adavosertib (NSC754352), TP-3654 (NSC805149), carboplatin (NSC241240), KSQ-4279 (NSC840948), and staurosporine (NSC755774) were obtained from the National Cancer Institute (NCI) Developmental Therapeutics Program Chemical Repository (34). The FDA-approved anticancer drug set is available from the NCI Developmental Therapeutics Program. […] The stock solutions were prepared in dimethyl sulfoxide (DMSO, Sigma-Aldrich, St. Louis, MO, cat. D2650) at 800-fold the tested concentration and stored at -70 degrees C prior to their use. All drugs and investigational agents were tested over a range starting from a high concentration at or near the clinical Cmax and decreasing in half-log increments. If the clinical Cmax for an agent had not been determined, the highest concentration tested was 10 microM.
2.3 Cell Culture. All cells were maintained in an incubator at 37 degrees C and 5% CO2 with 95% humidity. The PDC lines were cultured according to standard operating procedures established by the NCI PDMR. All PDCs were thawed and cultured in Matrigel-coated flasks prepared with a working solution of 1X Ham's F-12 nutrient mix, without supplementation (Invitrogen, cat. 11765054), 100 U/mL penicillin-streptomycin (Invitrogen, cat. 15140122), and 2.5% Matrigel (Corning Inc., cat. 354248) for the first three passages. The 857933-349-R-J2-PDC line was cultured in 6C/Colon 1B media, which includes advanced DMEM/F-12 (Thermo Fisher Scientific, cat. 12634028), 10 mM HEPES (Thermo Fisher Scientific, cat. 15630080), 1X GlutaMAX supplement (Thermo Fisher Scientific, cat. 35050061), 0.1 mg/mL primocin (InvivoGen, cat. ant-pm-2), 10% defined fetal bovine serum, heat inactivated (HyClone Laboratories Inc., cat. SH30070.03HI), 50% L-WRN conditioned media (ATCC, cat. CRL-3276), 1.25 mM N-Acetyl-L-cysteine (Sigma-Aldrich, cat. A9165), 10 mM nicotinamide (Sigma-Aldrich, cat. N0636), 1X B-27 supplement (Thermo Fisher Scientific, cat. 17504044), 1X N-2 supplement (Thermo Fisher Scientific, cat. 17502048), 10 microM Y-27632 dihydrochloride (Tocris Bioscience, cat. 1254), and 50 ng/mL human EGF recombinant protein (Thermo Fisher Scientific, cat. PHG0311). The 485176-168-R4-J1-PDC line was cultured in Panc media, which includes all 6C/Colon 1B media components plus 100 ng/mL human FGF-10 (Thermo Fisher Scientific, cat. 100-26), 500 nM SB-431542 (Selleckchem, cat. S1067), and gastrin (Tocris, cat. 3006).
[…]

[1] = curve of first compound, second compound 0.0316 µM
[2] = curve of first compound, second compound 0.1 µM
[3] = curve of first compound, second compound 0.316 µM
[4] = curve of first compound, second compound 1 µM
[5] = curve of first compound, second compound 3.16 µM
[6] = curve of first compound, second compound 10 µM
[7] = second compound 0.0316 µM, first compound 0.0316 µM
[8] = second compound 0.0316 µM, first compound 0.1 µM
[9] = second compound 0.0316 µM, first compound 0.316 µM
[10] = second compound 0.0316 µM, first compound 1 µM
[11] = second compound 0.0316 µM, first compound 3.16 µM
[12] = second compound 0.0316 µM, first compound 10 µM
[13] = second compound 0.1 µM, first compound 0.0316 µM
[14] = second compound 0.1 µM, first compound 0.1 µM
[15] = second compound 0.1 µM, first compound 0.316 µM
[16] = second compound 0.1 µM, first compound 1 µM
[17] = second compound 0.1 µM, first compound 3.16 µM
[18] = second compound 0.1 µM, first compound 10 µM
[19] = second compound 0.316 µM, first compound 0.0316 µM
[20] = second compound 0.316 µM, first compound 0.1 µM
[21] = second compound 0.316 µM, first compound 0.316 µM
[22] = second compound 0.316 µM, first compound 1 µM
[23] = second compound 0.316 µM, first compound 3.16 µM
[24] = second compound 0.316 µM, first compound 10 µM
[25] = second compound 1 µM, first compound 0.0316 µM
[26] = second compound 1 µM, first compound 0.1 µM
[27] = second compound 1 µM, first compound 0.316 µM
[28] = second compound 1 µM, first compound 1 µM
[29] = second compound 1 µM, first compound 3.16 µM
[30] = second compound 1 µM, first compound 10 µM
[31] = second compound 3.16 µM, first compound 0.0316 µM
[32] = second compound 3.16 µM, first compound 0.1 µM
[33] = second compound 3.16 µM, first compound 0.316 µM
[34] = second compound 3.16 µM, first compound 1 µM
[35] = second compound 3.16 µM, first compound 3.16 µM
[36] = second compound 3.16 µM, first compound 10 µM
[37] = second compound 10 µM, first compound 0.0316 µM
[38] = second compound 10 µM, first compound 0.1 µM
[39] = second compound 10 µM, first compound 0.316 µM
[40] = second compound 10 µM, first compound 1 µM
[41] = second compound 10 µM, first compound 3.16 µM
[42] = second compound 10 µM, first compound 10 µM
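Also: spheroids exposed to the agents for 7 days before readout.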
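For viability, T/C in this document: percent of luminescence signal in DMSO vehicle wells taken as 100% viability.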

`COc1ccc([C@@H](O)c2cc(-c3ncnc4cc(N5CCOCC5)ccc34)c(F)cc2Cl)nn1` + Cc1[nH]c2ccc(F)cc2c1-c1nc2c3cccnc3c3ncccc3c2[nH]1 was tested, and the IC50 [1] was > 10 µM, the IC50 [2] was > 10 µM and the IC50 [3] was > 10 µM. The IC50 [4] was > 10 µM, the IC50 [5] was > 10 µM and the IC50 [6] was > 10 µM. It also gave a viability, T/C [7] of 97.1%, a viability, T/C [8] of 98% and a viability, T/C [9] of 87.8%. For the same compound, the viability, T/C [10] was 98.1%, the viability, T/C [11] was 85% and the viability, T/C [12] was 95.5%. It also gave a viability, T/C [13] of 111%, a viability, T/C [14] of 99.5% and a viability, T/C [15] of 89%. It also gave a viability, T/C [16] of 93.3%, a viability, T/C [17] of 98% and a viability, T/C [18] of 88.5%. The viability, T/C [19] was 106%, the viability, T/C [20] was 93.2% and the viability, T/C [21] was 92.1%. For the same compound, the viability, T/C [22] was 86.9%, the viability, T/C [23] was 83.7% and the viability, T/C [24] was 75.9%. The viability, T/C [25] was 99.9%, the viability, T/C [26] was 101% and the viability, T/C [27] was 90.5%. It also gave a viability, T/C [28] of 92.6%, a viability, T/C [29] of 85.8% and a viability, T/C [30] of 75.6%. It also gave a viability, T/C [31] of 73.1%, a viability, T/C [32] of 85.1% and a viability, T/C [33] of 83.2%. For the same compound, the viability, T/C [34] was 69%, the viability, T/C [35] was 69.3% and the viability, T/C [36] was 77.4%. It also gave a viability, T/C [37] of 84.9%, a viability, T/C [38] of 93.9% and a viability, T/C [39] of 83.7%. For the same compound, the viability, T/C [40] was 82%, the viability, T/C [41] was 74.4% and the viability, T/C [42] was 80.8%.

In the case of `CC1COCCN1c1cc(C2(S(C)(=N)=O)CC2)nc(-c2ccnc3[nH]ccc23)n1` (stereo not drawn), the viability, T/C (compound 0.0316 µM) is reported as 97.7% and 98.8% and 96.5%, the viability, T/C (compound 0.1 µM) is reported as 111% and 89.2% and 102% and the viability, T/C (compound 0.316 µM) is reported as 93.4% and 106% and 88.7%. For the same compound, the viability, T/C (compound 1 µM) was 101% and 86.2% and 94%, the viability, T/C (compound 3.16 µM) was 92.3% and 87.4% and 80.1% and the viability, T/C (compound 10 µM) was 68.4% and 57.7% and 60.7%. The IC50 (curve of compound) was > 10 µM.

`COc1ncnc(C2CC2)c1-c1ncc2cnn(Cc3ccc(-c4nc(C(F)(F)F)cn4C(C)C)cc3)c2n1` + Cc1[nH]c2ccc(F)cc2c1-c1nc2c3cccnc3c3ncccc3c2[nH]1 was tested, and the IC50 [1] was > 10 µM, the IC50 [2] was > 10 µM and the IC50 [3] was > 10 µM. For the same compound, the IC50 [4] was > 10 µM, the IC50 [5] was > 10 µM and the IC50 [6] was > 10 µM. The viability, T/C [7] was 102%, the viability, T/C [8] was 86.8% and the viability, T/C [9] was 97.2%. It also gave a viability, T/C [10] of 90.3%, a viability, T/C [11] of 81.5% and a viability, T/C [12] of 58%. It also gave a viability, T/C [13] of 112%, a viability, T/C [14] of 94.8% and a viability, T/C [15] of 97.6%. The viability, T/C [16] was 93.8%, the viability, T/C [17] was 84.6% and the viability, T/C [18] was 63.6%. The viability, T/C [19] was 103%, the viability, T/C [20] was 104% and the viability, T/C [21] was 103%. The viability, T/C [22] was 90.6%, the viability, T/C [23] was 83.7% and the viability, T/C [24] was 72.5%. The viability, T/C [25] was 99.8%, the viability, T/C [26] was 92% and the viability, T/C [27] was 91.9%. It also gave a viability, T/C [28] of 92.5%, a viability, T/C [29] of 77.8% and a viability, T/C [30] of 60.4%. For the same compound, the viability, T/C [31] was 97.3%, the viability, T/C [32] was 95.3% and the viability, T/C [33] was 93.2%. The viability, T/C [34] was 78.2%, the viability, T/C [35] was 82.5% and the viability, T/C [36] was 50.6%. It also gave a viability, T/C [37] of 80.8%, a viability, T/C [38] of 62.9% and a viability, T/C [39] of 92.6%. For the same compound, the viability, T/C [40] was 81.7%, the viability, T/C [41] was 84.8% and the viability, T/C [42] was 60.7%.

With `C=CCn1c(=O)c2cnc(Nc3ccc(N4CCN(C)CC4)cc3)nc2n1-c1cccc(C(C)(C)O)n1` the viability, T/C (compound 0.0316 µM) was 109% and 94.2% and 108%, the viability, T/C (compound 0.1 µM) was 91.1% and 90.4% and 90.3% and the viability, T/C (compound 0.316 µM) was 86.3% and 89.2% and 88%. The viability, T/C (compound 1 µM) was 104% and 78.4% and 93.7%, the viability, T/C (compound 3.16 µM) was 110% and 62.9% and 53.1% and the viability, T/C (compound 10 µM) was 43.5% and 20.1% and 21.9%. The IC50 (curve of compound) was 8.76 µM and 4.36 µM and 3.55 µM.

For `CN(C)c1ccc(Nc2c3ccc(NC(=O)CCN4CCCC4)cc3nc3cc(NC(=O)CCN4CCCC4)ccc23)cc1`, the viability, T/C (compound 0.0316 µM) was 103% [middle of 12 runs], the viability, T/C (compound 0.1 µM) was 99.9% [middle of 12 runs] and the viability, T/C (compound 0.316 µM) was 101% [middle of 12 runs]. The viability, T/C (compound 3.16 µM) was 104% [middle of 12 runs], the viability, T/C (compound 10 µM) was 101% [middle of 12 runs] and the IC50 (compound alone, run of 04/22/2024) was > 10 µM.

For `COc1cccc2c1C(=O)c1c(O)c3c(c(O)c1C2=O)CC(O)(C(=O)CO)CC3OC1CC(N)C(O)C(C)O1` (stereo not drawn), the viability, T/C (compound 0.0316 µM) was 95.9% and 97.8% and 102%, the viability, T/C (compound 0.1 µM) was 95.7% and 105% and 90.6% and the viability, T/C (compound 0.316 µM) was 88.5% and 84.1% and 81.5%. For the same compound, the viability, T/C (compound 1 µM) was 78.7% and 80.2% and 79.4%, the viability, T/C (compound 3.16 µM) was 61.8% and 57.9% and 63.3% and the viability, T/C (compound 10 µM) was 51.2% and 41.3% and 43.4%. The IC50 (curve of compound) was > 10 µM and 5.6 µM and 7.09 µM.

`Cc1cnc(CNC(=O)c2c(=O)c3ccc(N4CCCN(C)CC4)nc3n3c2sc2ccccc23)cn1` was tested, and the viability, T/C (compound 0.0316 µM) was 98.7% [middle of 12 runs], the viability, T/C (compound 0.1 µM) was 93% [middle of 12 runs] and the viability, T/C (compound 0.316 µM) was 88.6% [middle of 12 runs]. The viability, T/C (compound 1 µM) was 81.6% [middle of 12 runs], the viability, T/C (compound 3.16 µM) was 75.7% [middle of 12 runs] and the viability, T/C (compound 10 µM) was 75.7% [middle of 12 runs]. For the same compound, the IC50 (compound alone, run of 04/16/2024) was > 10 µM.
